The source of these data is patent US20250163057A1, “DCN-1 MODULATING COMPOUNDS AND METHODS OF USE THEREOF” (Cellarity, Inc., priority 2023, published 2025).

Read-outs that look alike come from different tables or passages of the source. Some results are limits rather than exact numbers.

One may read the IC50 as the midpoint of a concentration-inhibition curve. Usually EC50 stands for the concentration that produces a half-maximal response.

In assay [1] the target is DCN1 (DCUND1) protein PONY domain (Homo sapiens (Human), UniProt Q96GG9). Description: TR-FRET assay, DCN1 binding with FAM-labeled probe. The gist of the method:
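Tb-DCN1 PONY domain (E. coli, biotin/streptavidin-Tb); FAM-labelled non-covalent inhibitor probe; TritonX buffer, 200 mM NaCl; 5 nM DCN1 + 20 nM probe or 0.31 nM DCN1 + 900 nM total probe; 0.1% DMSO; TR-FRET read 1, 5, 24 hrs.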
A general note: TR-FRET usually uses a lanthanide donor and a delayed reading to cut background.

Assay [2] has as its system fetal hemoglobin gene HBG1. Briefly: HBG1 Nanostring Assay in CD34+ HSPC erythroid differentiation culture. The class given is cell-based, human. To be noted: for EC50: HBG1 induction, Day10 of erythroid differentiation; for Nanostring Ymax obs (%): relative to a control compound (C1). The essentials:
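CD34+ HSPCs were dosed from day −2 (0.1% DMSO) through two-phase erythroid differentiation (EPO, transferrin, SCF, IL-3, insulin; IL-3 removed from day 7) at 37° C, 5% CO2. Day-10 lysates of 100K cells were hybridized at 67° C for 22 h for nCounter counting, normalized to ERCC and housekeeping controls. EC50 and Ymax were derived, with Ymax relative to a control compound.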

The target of the next assay is DCN1 protein (Homo sapiens (Human), UniProt Q96GG9). Briefly: Intact Protein MS Analysis with the RapidFire-TOF System (covalent adduct formation). Format: binding. To be noted: MS Emax; 400 nM DCN1, 3 hours at room temperature. The gist of the method: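 Tag-cleaved human DCN1 (400 nM) expressed in E. coli, in 25 mM Tris-HCl, 200 mM NaCl, 1 mM DTT, was incubated with 11 compound concentrations for 3 h at room temperature and quenched with 0.2% formic acid. Intact-protein Q-TOF MS with deconvolution detected the compound adduct mass.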
Sequence of DCN1 protein (Q96GG9 whole entry): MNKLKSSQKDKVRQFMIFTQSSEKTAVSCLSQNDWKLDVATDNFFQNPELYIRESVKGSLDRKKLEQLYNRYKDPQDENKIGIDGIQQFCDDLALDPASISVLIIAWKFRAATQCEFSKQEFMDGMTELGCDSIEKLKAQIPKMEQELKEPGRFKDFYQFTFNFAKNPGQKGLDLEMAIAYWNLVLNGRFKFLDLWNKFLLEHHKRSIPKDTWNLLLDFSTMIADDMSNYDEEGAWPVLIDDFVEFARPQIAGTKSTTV

The subject of assay [3] is Cullin-3 (CUL3) neddylation. Briefly: AlphaLISA assay for Cullin-3 (CUL3) neddylation in TF 1 cells. To be noted: 3 hours treatment. Format: cell-based. The essentials: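 TF 1 cells in unsupplemented IMDM treated with compound concentrations for 3 h, then lysed. CUL3 neddylation detected by AlphaLISA (biotinylated anti-NEDD8, anti-CUL3 acceptor beads overnight, streptavidin donor beads 1 h); normalized to vehicle (0%) and 1 μM DI-1548 (100%), IC50 from Hill fits.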
(In general: Bead proximity is the source of the signal in Alpha formats.)

[4] abbreviates: 24 hr after treatment with compound, read-out: TR FRET IC50 24 hr.
Setting [5] is: read-out: TR FRET IC50 1 hr, 1 hr after treatment with compound.
[6] abbreviates: TR FRET IC50 1 hr (nM), 1 hr after treatment with compound.

Sequence of DCN1 (DCUND1) protein PONY domain (Q96GG9 60-248): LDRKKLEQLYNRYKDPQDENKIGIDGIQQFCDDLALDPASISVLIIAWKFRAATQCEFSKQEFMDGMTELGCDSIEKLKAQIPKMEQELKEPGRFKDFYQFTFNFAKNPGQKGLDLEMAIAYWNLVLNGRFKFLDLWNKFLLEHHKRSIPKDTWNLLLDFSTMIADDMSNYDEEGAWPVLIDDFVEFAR

As to `CCN1C(=O)[C@@H](NC(=O)c2cccc(C(F)(F)F)c2)[C@@H](c2ccc(F)cc2)c2c(C(=O)N3CC[C@@H](C#N)C3)nn(-c3ccccc3)c21` (mixture of isomers) [Compound I-60], the 50% inhibitory concentration (IC50) in assay [1] (setting [4]) is 200 to 1000 nM; in assay [1] (setting [5]), at most 200 nM. Also, the concentration for a half-maximal effect (EC50) in assay [2] (Homo sapiens, 240 h) is over 1000 nM. For the same compound, the “Nanostring Ymax obs (%)” value in assay [2] was “++ (Nanostring Ymax greater than 50.0 and less than or equal to 100.0)”. In addition, on DCN1 protein, the “% Adduct Formation” value is “+ (MS Emax % adduct formation greater than or equal to 0.0 and less than or equal to 30.0)”.

For the compound `CCN1C(=O)[C@@H](NC(=O)c2cccc(C(F)(F)F)c2)[C@@H](c2ccc(F)cc2)c2c(CCNC#N)nn(-c3ccccc3)c21` (racemic) [Compound I-10, rac-N-((4R,5R)-3-(2-cyanamidoethyl)-7-ethyl-4-(4-fluorophenyl)-6-oxo-1-phenyl-4,5,6,7-tetrahydro-1H-pyrazolo[3,4-b]pyridin-5-yl)-3-(trifluoromethyl)benzamide], the IC50 was at most 200 nM in assay [1] (setting [4]) and 200 to 1000 nM in assay [1] (setting [6]). This compound came in with a 50% effective concentration (EC50) in assay [2] (Homo sapiens, 240 h) of 100 to 1000 nM. Besides, the “Nanostring Ymax obs (%)” value in assay [2] is “++ (Nanostring Ymax greater than 50.0 and less than or equal to 100.0)”. Besides, on DCN1 protein, the “% Adduct Formation” value was “++ (MS Emax % adduct formation greater than 30.0 and less than or equal to 80.0)”.

Take `CCN1C(=O)[C@@H](NC(=O)c2cccc(C(F)(F)F)c2)[C@@H](c2ccc(F)cc2)c2c(C/C=C/C(=O)NC)nn(-c3ccccc3)c21` (racemic) [Compound I-38]: the half-maximal inhibitory concentration (IC50) in assay [1] (setting [4]) and in assay [1] (setting [6]) was 1000 to 3000 nM in each case. For the same compound, the EC50 in assay [2] (Homo sapiens, 240 h) is over 1000 nM. The “Nanostring Ymax obs (%)” value in assay [2] was “+ (Nanostring Ymax greater than or equal to 0.0 and less than or equal to 50.0)”. The “% Adduct Formation” value on DCN1 protein is “+ (MS Emax % adduct formation greater than or equal to 0.0 and less than or equal to 30.0)”.

On to `CCN1C(=O)[C@@H](NC(=O)c2cccc(C(F)(F)F)c2)[C@@H](c2ccc(F)cc2)c2c(NC(=O)C3(C#N)CCOCC3)nn(-c3ccccc3)c21` (racemic) [Compound I-66], for which the concentration for half-maximal inhibition (IC50) in assay [1] (setting [4]) lay within 200 to 1000 nM. The compound also showed a half-maximal effective concentration (EC50) in assay [2] (Homo sapiens, 240 h) of over 1000 nM. In addition, the “Nanostring Ymax obs (%)” value in assay [2] was “+ (Nanostring Ymax greater than or equal to 0.0 and less than or equal to 50.0)”. In addition, on DCN1 protein, the “% Adduct Formation” value is “+ (MS Emax % adduct formation greater than or equal to 0.0 and less than or equal to 30.0)”.

Consider `C=C(CN1CCC(F)(F)C1)C(=O)NCc1nn(-c2ccccc2)c2c1[C@H](c1ccc(F)cc1)[C@H](NC(=O)c1cccc(C(F)(F)F)c1)C(=O)N2CC` (racemic) [Compound I-72], for which the half-maximal inhibitory concentration (IC50) in assay [1] (setting [4]) and in assay [1] (setting [6]) was 200 to 1000 nM in each case. The compound also had an EC50 in assay [2] (Homo sapiens, 240 h) of 100 to 1000 nM. For the same compound, the “Nanostring Ymax obs (%)” value in assay [2] is “++ (Nanostring Ymax greater than 50.0 and less than or equal to 100.0)”. Further, the “% Adduct Formation” value at DCN1 protein is “+ (MS Emax % adduct formation greater than or equal to 0.0 and less than or equal to 30.0)”.

With `CCN1C(=O)[C@@H](NC(=O)c2cccc(C(F)(F)F)c2)[C@@H](c2ccc(F)cc2)c2c(C3(NC#N)CC3)nn(-c3ccccc3)c21` (racemic) [Compound I-87], the IC50 is at most 200 nM in assay [1] (setting [4]) and 200 to 1000 nM in assay [1] (setting [6]). This compound also gave an EC50 in assay [2] (Homo sapiens, 240 h) of 100 to 1000 nM. The “Nanostring Ymax obs (%)” value in assay [2] was “++ (Nanostring Ymax greater than 50.0 and less than or equal to 100.0)”. Also, the “% Adduct Formation” value at DCN1 protein was “+++ (MS Emax % adduct formation greater than 80.0 and less than or equal to 100.0)”.

On to `C=C(CO)C(=O)NCc1nn(-c2ccccc2)c2c1[C@H](c1ccc(F)cc1)[C@H](NC(=O)c1cccc(C(F)(F)F)c1)C(=O)N2CC` (racemic) [Compound I-116, rac-N-((4R,5R)-7-ethyl-4-(4-fluorophenyl)-3-((2-(hydroxymethyl)acrylamido)methyl)-6-oxo-1-phenyl-4,5,6,7-tetrahydro-1H-pyrazolo[3,4-b]pyridin-5-yl)-3-(trifluoromethyl)benzamide], for which the IC50 in assay [1] (setting [4]) and in assay [1] (setting [6]) was 200 to 1000 nM throughout. For the same compound, the half-maximal effective concentration (EC50) in assay [2] (Homo sapiens, 240 h) was over 1000 nM. Besides, the “Nanostring Ymax obs (%)” value in assay [2] was “+ (Nanostring Ymax greater than or equal to 0.0 and less than or equal to 50.0)”. Moreover, at DCN1 protein, the “% Adduct Formation” value is “+ (MS Emax % adduct formation greater than or equal to 0.0 and less than or equal to 30.0)”.

As to `CCN1C(=O)[C@@H](NC(=O)c2cccc(C(F)(F)F)c2)[C@H](c2ccc(F)cc2)c2c(CN(C)C(=O)/C=C/C(=O)OC)nn(-c3ccccc3)c21` (racemic) [Compound I-141, methyl (˜{E})-4-[[(4˜{S},5˜{S})-7-ethyl-4-(4-fluorophenyl)-6-oxo-1-phenyl-5-[[3-(trifluoromethyl)benzoyl]amino]-4,5-dihydropyrazolo[3,4-b]pyridine-3-yl]methyl-methyl-amino]-4-oxo-but-2-enoate], in assay [1] (setting [6]), the IC50 is 200 to 1000 nM. This compound also had a half-maximal effective concentration (EC50) in assay [2] (Homo sapiens, 240 h) of over 1000 nM. Also, the “Nanostring Ymax obs (%)” value in assay [2] is “++ (Nanostring Ymax greater than 50.0 and less than or equal to 100.0)”. For the same compound, the “% Adduct Formation” value at DCN1 protein is “+ (MS Emax % adduct formation greater than or equal to 0.0 and less than or equal to 30.0)”.

Turning to `CCN1C(=O)[C@@H](NC(=O)c2cccc(C(F)(F)F)c2)[C@@H](c2ccc(F)cc2)c2c(CCN(C)C#N)nn(-c3ccccc3)c21` (racemic) [Compound I-151, rac-N-((4R,5R)-7-ethyl-4-(4-fluorophenyl)-3-(2-(N-methylcyanamido)ethyl)-6-oxo-1-phenyl-4,5,6,7-tetrahydro-1H-pyrazolo[3,4-b]pyridin-5-yl)-3-(trifluoromethyl)benzamide], the IC50 in assay [1] (setting [4]) was at most 200 nM; in assay [1] (setting [6]) it was 200 to 1000 nM. This compound also gave an EC50 in assay [2] (Homo sapiens, 240 h) of over 1000 nM. The “Nanostring Ymax obs (%)” value in assay [2] is “++ (Nanostring Ymax greater than 50.0 and less than or equal to 100.0)”. Further, the “% Adduct Formation” value on DCN1 protein is “+++ (MS Emax % adduct formation greater than 80.0 and less than or equal to 100.0)”.

With `CCN1C(=O)[C@@H](NC(=O)c2cccc(C(F)(F)F)c2)[C@@H](c2ccc(F)cc2)c2c(CNC(=O)C3=C(C(=O)OC)CC3)nn(-c3ccccc3)c21` [Compound I-119], the IC50 in assay [1] (setting [4]) and in assay [1] (setting [6]) was 200 to 1000 nM throughout. This compound displayed a half-maximal effective concentration (EC50) in assay [2] (Homo sapiens, 240 h) of 100 to 1000 nM. Besides, the “Nanostring Ymax obs (%)” value in assay [2] was “++ (Nanostring Ymax greater than 50.0 and less than or equal to 100.0)”. For the same compound, at DCN1 protein, the “% Adduct Formation” value is “+ (MS Emax % adduct formation greater than or equal to 0.0 and less than or equal to 30.0)”.

As to `CCN1C(=O)[C@H](NC(=O)c2cccc(C(F)(F)F)c2)[C@@H](c2ccc(F)cc2)c2c([C@@H](C)NC#N)nn(-c3ccccc3)c21` [Compound I-637], the IC50 in assay [3] (Homo sapiens, TF-1, 3 h) was over 1000 nM; in assay [1] (setting [4]), 200 to 1000 nM; in assay [1] (setting [6]), 1000 to 3000 nM. The “Nanostring Ymax obs (%)” value in assay [2] is “+ (Nanostring Ymax greater than or equal to 0.0 and less than or equal to 50.0)”.

For `C=C(CN1CC(C)(O)C1)C(=O)NCc1nn(-c2ccccc2)c2c1[C@H](c1ccc(F)cc1)[C@H](NC(=O)c1cccc(C(F)(F)F)c1)C(=O)N2CC` [Compound I-643], the IC50 in assay [3] (Homo sapiens, TF-1, 3 h) is at most 100 nM; in assay [1] (setting [4]) it was at most 200 nM; in assay [1] (setting [5]) it was at most 200 nM. The compound also yielded an EC50 in assay [2] (Homo sapiens, 240 h) of at most 100 nM. Also, the “Nanostring Ymax obs (%)” value in assay [2] is “++ (Nanostring Ymax greater than 50.0 and less than or equal to 100.0)”.

Turning to `C=C(CN1CCC12COC2)C(=O)NCc1nn(-c2ccccc2)c2c1[C@H](c1ccc(F)cc1)[C@H](NC(=O)c1cccc(C(F)(F)F)c1)C(=O)N2CC` [Compound I-644], the half-maximal inhibitory concentration (IC50) in assay [3] (Homo sapiens, TF-1, 3 h) was at most 100 nM; in assay [1] (setting [4]) it was at most 200 nM; in assay [1] (setting [5]) it was at most 200 nM. This compound also gave a concentration for a half-maximal effect (EC50) in assay [2] (Homo sapiens, 240 h) of over 1000 nM. For the same compound, in assay [2], the “Nanostring Ymax obs (%)” value was “++ (Nanostring Ymax greater than 50.0 and less than or equal to 100.0)”.

In the case of `C=C(CN1CC2(CCOC2)C1)C(=O)NCc1nn(-c2ccccc2)c2c1[C@H](c1ccc(F)cc1)[C@H](NC(=O)c1cccc(C(F)(F)F)c1)C(=O)N2CC` [Compound I-677], the concentration for half-maximal inhibition (IC50) was at most 100 nM in assay [3] (Homo sapiens, TF-1, 3 h); at most 200 nM in assay [1] (setting [4]); at most 200 nM in assay [1] (setting [5]). Further, in assay [2], the “Nanostring Ymax obs (%)” value is listed as “+++ (Nanostring Ymax greater than 100.0)”.

For the compound `COC(=O)/C=C/CN(C)Cc1nn(-c2ccccc2)c2c1[C@H](c1ccc(F)cc1)[C@H](NC(=O)c1cccc(C(F)(F)F)c1)C(=O)N2CC(C)C` [I-266], the concentration for half-maximal inhibition (IC50) was 100 to 1000 nM in assay [3], 200 to 1000 nM in assay [1] (setting [4]) and 200 to 1000 nM in assay [1] (setting [5]). Moreover, the EC50 in assay [2] is over 1000 nM. The “Nanostring Ymax obs (%)” value in assay [2] is “+ (Nanostring Ymax greater than or equal to 0.0 and less than or equal to 50.0)”.
